Data as given in ChEMBL document CHEMBL3112424, “Discovery and optimization of pyrimidone indoline amide PI3Kβ inhibitors for the treatment of phosphatase and tensin homologue (PTEN)-deficient cancers” (J Med Chem, 2014).
pEC50, pIC50: −log10 of the molar value. In brackets after ≈: the same amount, converted by molar mass.

Legend:
Mus musculus [1] = test: Toxicity in SCID mouse xenografted with PTEN-deficient human PC3 cells at 150 mg/kg, po bid; assay type: organism-based, PC-3; set-up: dose 150 mg/kg, route oral; conditions: in vivo
Mus musculus [2] = test: In vivo inhibition of PI3Kbeta in tumor of po dosed SCID mouse xenografted with PTEN-deficient human PC3 cells assessed as inhibition of Akt phosphorylation at S473; assay type: functional, organism-based; conditions: PC-3
[3] = target: T1, Phosphatidylinositol 4,5-bisphosphate 3-kinase catalytic subunit beta isoform (Homo sapiens, UniProt P42338); test: Inhibition of PI3Kbeta-mediated Akt phosphorylation at S473 in BRAF-V600E/PTEN-deficient human UACC62 cells; assay type: cell-based, UACC-62
Target sequence in this assay (P42338 whole entry, canonical isoform): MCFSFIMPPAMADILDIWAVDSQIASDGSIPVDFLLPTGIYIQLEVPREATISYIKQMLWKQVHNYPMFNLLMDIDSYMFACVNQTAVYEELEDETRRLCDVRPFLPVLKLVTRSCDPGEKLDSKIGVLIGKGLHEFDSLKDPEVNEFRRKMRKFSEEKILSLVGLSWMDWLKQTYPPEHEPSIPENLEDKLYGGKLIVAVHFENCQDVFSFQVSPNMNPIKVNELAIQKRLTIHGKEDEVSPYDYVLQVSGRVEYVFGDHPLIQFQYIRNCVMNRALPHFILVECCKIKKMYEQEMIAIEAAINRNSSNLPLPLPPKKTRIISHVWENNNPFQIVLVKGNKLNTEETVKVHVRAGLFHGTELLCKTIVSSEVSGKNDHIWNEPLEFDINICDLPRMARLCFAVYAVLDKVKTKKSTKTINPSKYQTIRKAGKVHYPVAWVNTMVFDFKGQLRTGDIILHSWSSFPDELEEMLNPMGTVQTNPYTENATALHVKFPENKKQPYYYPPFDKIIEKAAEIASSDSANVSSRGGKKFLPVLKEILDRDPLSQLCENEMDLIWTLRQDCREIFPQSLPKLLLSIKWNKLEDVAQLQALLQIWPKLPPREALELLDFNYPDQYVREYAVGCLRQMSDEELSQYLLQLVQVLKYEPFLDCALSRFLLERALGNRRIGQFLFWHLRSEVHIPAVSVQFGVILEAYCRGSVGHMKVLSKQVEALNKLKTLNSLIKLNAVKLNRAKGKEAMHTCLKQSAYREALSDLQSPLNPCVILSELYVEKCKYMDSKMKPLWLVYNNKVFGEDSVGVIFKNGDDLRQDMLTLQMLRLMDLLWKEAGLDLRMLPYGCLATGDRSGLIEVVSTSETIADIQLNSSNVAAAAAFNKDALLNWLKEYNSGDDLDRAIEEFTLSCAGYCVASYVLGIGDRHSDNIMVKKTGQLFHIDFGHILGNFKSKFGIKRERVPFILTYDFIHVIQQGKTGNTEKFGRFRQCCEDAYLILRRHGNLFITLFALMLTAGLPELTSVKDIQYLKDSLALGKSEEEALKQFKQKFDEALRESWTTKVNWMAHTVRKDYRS

[4] = Oral bioavailability in Balb/c mouse plasma at 100 mg/kg by LC-MS/MS analysis; assay type: ADME, organism-based
UACC-62 = test: Antitumor activity against BRAF-V600E/PTEN-deficient human UACC62 cells xenografted in SCID mouse assessed as tumor growth inhibition at 150 mg/kg, po bid measured on day 15; assay type: functional
[5] = target: T1, Phosphatidylinositol 4,5-bisphosphate 3-kinase catalytic subunit beta isoform; conditions: PC-3
Target sequence in this assay (P42338 whole entry, looked up, canonical isoform): as the sequence (P42338 whole entry, canonical isoform) above
Description: Inhibition of PI3Kbeta-mediated Akt phosphorylation at S473 in PTEN-deficient human PC3 cells after 0.5 to 2 hrs by Immunoblotting assay

[6] = target: Phosphatidylinositol 4-phosphate 3-kinase C2 domain-containing subunit beta (Homo sapiens, UniProt O00750); test: Inhibition of PI3KC2beta (unknown origin)
[7] = Clearance in nude rat at 3 mg/kg, iv; assay type: ADME, organism-based; set-up: dose 3 mg/kg, route intravenous; conditions: in vivo
[8] = Half life in nude rat at 10 mg/kg, po; assay type: ADME, organism-based; set-up: dose 10 mg/kg, route oral; conditions: in vivo
[9] = AUC (infinity) in Beagle dog at 10 mg/kg, po; assay type: ADME, organism-based, Canis lupus familiaris; set-up: time infinity, dose 10 mg/kg, route oral; conditions: plasma
[10] = target: T2, Phosphatidylinositol 3-kinase C2 domain-containing subunit gamma (Homo sapiens, UniProt O75747); test: Inhibition of PI3KC2gamma (unknown origin)
T2 sequence (O75747 whole entry): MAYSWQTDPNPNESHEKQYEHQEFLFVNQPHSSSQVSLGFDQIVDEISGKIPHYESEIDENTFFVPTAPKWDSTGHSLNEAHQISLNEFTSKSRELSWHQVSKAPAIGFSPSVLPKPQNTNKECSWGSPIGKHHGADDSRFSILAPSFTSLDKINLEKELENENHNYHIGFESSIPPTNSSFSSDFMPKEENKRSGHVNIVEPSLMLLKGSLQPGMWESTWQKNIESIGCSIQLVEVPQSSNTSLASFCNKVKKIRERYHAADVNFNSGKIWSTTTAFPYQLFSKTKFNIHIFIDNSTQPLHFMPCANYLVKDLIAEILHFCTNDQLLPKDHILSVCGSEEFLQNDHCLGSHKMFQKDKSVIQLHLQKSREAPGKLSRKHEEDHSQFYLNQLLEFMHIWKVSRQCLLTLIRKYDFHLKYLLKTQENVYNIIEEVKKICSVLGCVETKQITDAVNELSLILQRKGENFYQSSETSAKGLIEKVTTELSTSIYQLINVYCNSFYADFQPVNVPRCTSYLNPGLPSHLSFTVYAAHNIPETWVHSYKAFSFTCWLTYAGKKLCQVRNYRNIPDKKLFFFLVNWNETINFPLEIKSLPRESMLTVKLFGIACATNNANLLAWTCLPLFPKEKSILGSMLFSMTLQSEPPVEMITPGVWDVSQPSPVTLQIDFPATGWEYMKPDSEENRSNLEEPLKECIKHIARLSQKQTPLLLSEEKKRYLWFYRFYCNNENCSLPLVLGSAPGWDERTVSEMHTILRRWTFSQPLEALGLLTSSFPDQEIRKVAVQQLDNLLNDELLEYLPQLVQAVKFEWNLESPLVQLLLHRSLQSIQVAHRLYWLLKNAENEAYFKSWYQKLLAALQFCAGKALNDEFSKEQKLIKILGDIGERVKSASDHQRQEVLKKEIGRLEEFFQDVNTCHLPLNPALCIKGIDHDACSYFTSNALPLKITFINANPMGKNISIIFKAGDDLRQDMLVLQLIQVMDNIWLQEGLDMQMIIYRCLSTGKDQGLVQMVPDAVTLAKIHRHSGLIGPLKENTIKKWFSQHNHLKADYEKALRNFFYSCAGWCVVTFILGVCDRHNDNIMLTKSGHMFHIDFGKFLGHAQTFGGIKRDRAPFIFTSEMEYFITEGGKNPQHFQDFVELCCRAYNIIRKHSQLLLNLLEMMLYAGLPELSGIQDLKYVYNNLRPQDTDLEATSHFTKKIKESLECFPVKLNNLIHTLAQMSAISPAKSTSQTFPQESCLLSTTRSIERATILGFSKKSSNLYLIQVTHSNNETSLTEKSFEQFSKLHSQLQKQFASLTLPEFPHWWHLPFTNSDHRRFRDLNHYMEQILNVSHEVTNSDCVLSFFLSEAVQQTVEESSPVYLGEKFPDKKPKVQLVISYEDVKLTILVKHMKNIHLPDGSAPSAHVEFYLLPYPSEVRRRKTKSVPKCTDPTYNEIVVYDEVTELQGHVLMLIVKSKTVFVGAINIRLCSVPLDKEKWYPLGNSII

[11] = Oral bioavailability in Beagle dog at 10 mg/kg; assay type: ADME, organism-based, Canis lupus familiaris; conditions: in vivo
[12] = Plasma concentration in SCID mouse xenografted with PTEN-deficient human PC3 cells at 100 mg/kg, po after 16 hrs; assay type: ADME, organism-based, PC-3; set-up: dose 100 mg/kg, route oral
[13] = Cmax in Beagle dog at 10 mg/kg, po; assay type: ADME, organism-based, Canis lupus familiaris; set-up: dose 10 mg/kg, route oral; conditions: in vivo
[14] = Oral bioavailability in Balb/c mouse plasma at 10 mg/kg by LC-MS/MS analysis; assay type: ADME, organism-based
[15] = target: Phosphatidylinositol 3-kinase catalytic subunit type 3 (Homo sapiens, UniProt Q8NEB9); test: Inhibition of VPS34 (unknown origin)
[16] = Solubility of the compound in phosphate buffer at pH 7.4 by HPLC analysis; conditions: buffer
Liver microsome = test: Metabolic stability in dog liver microsomes; assay type: ADME, Canis lupus familiaris
[17] = Plasma concentration in SCID mouse xenografted with PTEN-deficient human PC3 cells at 100 mg/kg, po after 4 hrs; assay type: ADME, organism-based, PC-3; set-up: dose 100 mg/kg, route oral
[18] = AUC (infinity) in Balb/c mouse plasma at 10 mg/kg, po by LC-MS/MS analysis; assay type: ADME, organism-based; set-up: time infinity, dose 10 mg/kg, route oral
Cytochrome P450 3A4 = Cytochrome P450 3A4 (Homo sapiens, UniProt P08684); test: Inhibition of recombinant human CYP3A4
[19] = Plasma concentration in SCID mouse xenografted with PTEN-deficient human PC3 cells at 100 mg/kg, po after 24 hrs; assay type: ADME, organism-based, PC-3; set-up: dose 100 mg/kg, route oral
[20] = Tmax in nude rat at 10 mg/kg, po; assay type: ADME, organism-based; set-up: dose 10 mg/kg, route oral; conditions: in vivo
[21] = AUC (infinity) in Balb/c mouse plasma at 100 mg/kg, po by LC-MS/MS analysis; assay type: ADME, organism-based; set-up: time infinity, dose 100 mg/kg, route oral
Mus musculus [22] = test: In vivo inhibition of PI3Kbeta in tumor of SCID mouse xenografted with PTEN-deficient human PC3 cells assessed as inhibition of Akt phosphorylation at S473 at 100 mg/kg, po up to 7 hrs; assay type: functional; conditions: PC-3, 7 h
[23] = Tmax in Balb/c mouse plasma at 10 mg/kg, po by LC-MS/MS analysis; assay type: ADME, organism-based; set-up: dose 10 mg/kg, route oral
[24] = Tmax in Beagle dog at 3 mg/kg, iv; assay type: ADME, organism-based, Canis lupus familiaris; set-up: dose 3 mg/kg, route intravenous; conditions: in vivo

Phosphatidylinositol 4-phosphate 3-kinase C2 domain-containing subunit beta, sequence (O00750 whole entry, the tested form may be a part): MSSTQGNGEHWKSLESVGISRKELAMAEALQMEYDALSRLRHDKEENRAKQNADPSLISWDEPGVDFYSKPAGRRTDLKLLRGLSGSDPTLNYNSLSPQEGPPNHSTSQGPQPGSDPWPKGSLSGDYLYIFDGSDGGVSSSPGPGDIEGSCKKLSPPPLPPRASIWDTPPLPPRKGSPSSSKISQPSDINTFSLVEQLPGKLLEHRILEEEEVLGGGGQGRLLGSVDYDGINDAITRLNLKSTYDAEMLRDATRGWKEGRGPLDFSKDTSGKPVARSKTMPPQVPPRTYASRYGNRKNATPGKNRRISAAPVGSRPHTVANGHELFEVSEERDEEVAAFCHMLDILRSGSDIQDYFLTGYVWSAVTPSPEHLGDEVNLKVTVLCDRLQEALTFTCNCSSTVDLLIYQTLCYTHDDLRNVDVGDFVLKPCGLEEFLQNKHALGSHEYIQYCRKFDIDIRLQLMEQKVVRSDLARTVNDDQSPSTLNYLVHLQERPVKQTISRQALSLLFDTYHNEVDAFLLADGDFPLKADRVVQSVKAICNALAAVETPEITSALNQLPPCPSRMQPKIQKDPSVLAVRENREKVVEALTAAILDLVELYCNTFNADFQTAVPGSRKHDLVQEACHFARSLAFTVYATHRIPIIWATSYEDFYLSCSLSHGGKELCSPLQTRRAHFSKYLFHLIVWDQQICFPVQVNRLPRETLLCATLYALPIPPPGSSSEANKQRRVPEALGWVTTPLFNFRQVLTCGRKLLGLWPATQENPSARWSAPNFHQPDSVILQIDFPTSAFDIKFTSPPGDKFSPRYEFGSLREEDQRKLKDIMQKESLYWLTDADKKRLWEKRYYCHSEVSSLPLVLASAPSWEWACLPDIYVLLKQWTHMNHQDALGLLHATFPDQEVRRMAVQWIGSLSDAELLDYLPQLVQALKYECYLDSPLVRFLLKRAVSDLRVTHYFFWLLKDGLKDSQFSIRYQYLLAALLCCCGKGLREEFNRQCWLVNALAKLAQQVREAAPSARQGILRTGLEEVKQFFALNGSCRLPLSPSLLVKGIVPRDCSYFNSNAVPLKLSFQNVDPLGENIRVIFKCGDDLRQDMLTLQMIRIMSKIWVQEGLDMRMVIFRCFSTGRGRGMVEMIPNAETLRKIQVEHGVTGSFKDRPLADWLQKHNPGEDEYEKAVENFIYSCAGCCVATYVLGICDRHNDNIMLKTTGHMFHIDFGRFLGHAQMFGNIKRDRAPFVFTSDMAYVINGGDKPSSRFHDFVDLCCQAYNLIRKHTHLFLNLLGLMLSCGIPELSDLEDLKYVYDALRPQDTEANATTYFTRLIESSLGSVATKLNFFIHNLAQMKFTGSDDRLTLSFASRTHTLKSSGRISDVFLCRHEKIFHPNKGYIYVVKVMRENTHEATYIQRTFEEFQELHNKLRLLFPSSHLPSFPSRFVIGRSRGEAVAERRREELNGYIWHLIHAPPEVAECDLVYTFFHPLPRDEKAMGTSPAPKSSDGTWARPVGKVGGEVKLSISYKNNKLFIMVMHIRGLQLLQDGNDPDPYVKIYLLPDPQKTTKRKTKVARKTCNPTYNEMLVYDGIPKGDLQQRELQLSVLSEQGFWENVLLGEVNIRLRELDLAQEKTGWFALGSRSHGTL
Phosphatidylinositol 3-kinase catalytic subunit type 3, sequence (Q8NEB9 whole entry): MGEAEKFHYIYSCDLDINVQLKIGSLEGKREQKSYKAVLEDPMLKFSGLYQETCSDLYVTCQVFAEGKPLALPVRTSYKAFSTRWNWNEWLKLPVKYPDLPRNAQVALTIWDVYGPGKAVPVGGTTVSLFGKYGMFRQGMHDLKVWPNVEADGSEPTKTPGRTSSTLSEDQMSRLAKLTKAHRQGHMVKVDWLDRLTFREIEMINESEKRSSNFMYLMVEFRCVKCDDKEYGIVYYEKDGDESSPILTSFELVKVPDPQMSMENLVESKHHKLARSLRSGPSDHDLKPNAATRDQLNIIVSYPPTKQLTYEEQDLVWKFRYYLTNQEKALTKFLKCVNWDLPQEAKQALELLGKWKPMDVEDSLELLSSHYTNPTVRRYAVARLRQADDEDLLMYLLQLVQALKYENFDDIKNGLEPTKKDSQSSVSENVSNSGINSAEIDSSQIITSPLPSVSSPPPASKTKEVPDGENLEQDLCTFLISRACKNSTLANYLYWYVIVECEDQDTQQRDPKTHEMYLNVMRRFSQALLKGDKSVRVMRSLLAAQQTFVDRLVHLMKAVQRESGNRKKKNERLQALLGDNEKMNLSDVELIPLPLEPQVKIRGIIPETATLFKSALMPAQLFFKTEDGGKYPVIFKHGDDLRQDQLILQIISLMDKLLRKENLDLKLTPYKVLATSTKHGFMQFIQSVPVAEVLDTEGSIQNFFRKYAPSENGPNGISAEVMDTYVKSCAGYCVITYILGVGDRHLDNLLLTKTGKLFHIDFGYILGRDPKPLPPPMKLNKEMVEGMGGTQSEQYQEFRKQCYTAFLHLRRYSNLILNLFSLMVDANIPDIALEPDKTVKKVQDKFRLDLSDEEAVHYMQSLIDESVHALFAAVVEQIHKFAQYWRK
Cytochrome P450 3A4, sequence (P08684 whole entry): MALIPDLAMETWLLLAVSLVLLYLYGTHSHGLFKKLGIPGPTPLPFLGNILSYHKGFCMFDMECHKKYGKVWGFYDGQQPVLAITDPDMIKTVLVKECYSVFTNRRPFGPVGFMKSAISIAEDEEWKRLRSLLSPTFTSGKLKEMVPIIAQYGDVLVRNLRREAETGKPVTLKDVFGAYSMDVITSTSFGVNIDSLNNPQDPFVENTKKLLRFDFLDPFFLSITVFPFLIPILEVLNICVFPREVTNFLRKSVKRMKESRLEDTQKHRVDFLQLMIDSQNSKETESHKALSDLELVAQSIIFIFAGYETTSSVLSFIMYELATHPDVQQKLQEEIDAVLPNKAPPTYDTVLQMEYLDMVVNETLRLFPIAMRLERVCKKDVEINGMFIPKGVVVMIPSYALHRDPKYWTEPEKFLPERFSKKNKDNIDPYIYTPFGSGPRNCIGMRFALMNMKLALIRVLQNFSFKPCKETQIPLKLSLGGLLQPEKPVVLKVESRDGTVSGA

Structure (SMILES): C[C@H]1Cc2ccccc2N1C(=O)Cc1nc(N2CCOCC2)cc(=O)[nH]1 [SAR-260301]
- Activity (Mus musculus [1]): Non-toxic
- pEC50 (Mus musculus [2]): 6.17
- pIC50 [3]: 7.22
- bioavailability [4]: 55%
- T/C (UACC-62): 39%
- IC90 [5]: 2 nM
- pIC50 [6]: < 6.00
- clearance [7]: 56.7 mL/min/kg
- half-life [8]: 414 min
- AUC(0-inf) [9]: 14000 ng·h/mL
- pIC50 [10]: 5.42
- bioavailability [11]: 67%
- concentration at 16 h [12]: 26 nM
- Cmax [13]: 4770 ng/mL
- bioavailability [14]: 30%
- pIC50 [15]: 6.74
- solubility [16]: 928 µM (≈ 329 µg/mL)
- Stability (Liver microsome): 5%
- concentration at 4 h [17]: 14200 nM
- AUC(0-inf) [18]: 610 ng·h/mL
- pIC50 (Cytochrome P450 3A4): 4.40
- concentration at 24 h [19]: 76 nM
- Tmax [20]: 15 min
- AUC(0-inf) [21]: 11000 ng·h/mL
- inhibition in vivo at 100 mg/kg (Mus musculus [22]): ≥ 50%
- Tmax [23]: 15 min
- Tmax [24]: 30 min
